Test results as given in patent US11149037B2, “Pyrazole MAGL inhibitors” (H. Lundbeck A/S, priority 2017, dated 2021).

Legend:
Format in all cases: biochemical
[1] = biological target: FAAH (Homo sapiens (Human), UniProt O00519); experiment: In vitro competitive activity-based protein profiling, human proteomes (prefrontal cortex or PC3 cell membrane fractions); details: human proteome; for inhibition at 1 µM: read-out: FAAH % inh. 1 μM (human)
Outline: (§1)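 Activity of MAGL and FAAH was quantified from fluorescent gel band intensities. Beforehand, inhibitors at several concentrations competed against subsequent probe labelling (FP-Rh, JW912 or HT-01) in species-matched proteomes, each step 30 min at 37° C.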

[2] = biological target: MAGL (Homo sapiens (Human), UniProt Q99685); experiment: as above; details: human proteome; for inhibition at 1 µM: read-out: MAGL % inh. 1 μM (human)
MAGL (Homo sapiens (Human), UniProt Q99685), sequence (Q99685 whole entry): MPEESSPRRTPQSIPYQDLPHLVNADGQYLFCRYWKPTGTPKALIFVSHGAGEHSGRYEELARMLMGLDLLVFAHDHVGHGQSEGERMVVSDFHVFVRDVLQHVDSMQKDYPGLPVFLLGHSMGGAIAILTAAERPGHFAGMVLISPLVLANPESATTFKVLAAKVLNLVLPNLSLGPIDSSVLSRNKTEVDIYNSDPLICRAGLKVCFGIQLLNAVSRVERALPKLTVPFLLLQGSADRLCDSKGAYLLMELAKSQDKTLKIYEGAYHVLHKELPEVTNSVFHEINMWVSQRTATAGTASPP
Outline: as §1

[3] = biological target: FAAH (Mus musculus (Mouse), UniProt O08914); experiment: In vitro competitive activity-based protein profiling, mouse proteomes (brain membrane fraction or cell lysates); details: mouse proteome, read-out: FAAH % inh. 1 μM (mouse)
FAAH (Mus musculus (Mouse), UniProt O08914), sequence (O08914 whole entry): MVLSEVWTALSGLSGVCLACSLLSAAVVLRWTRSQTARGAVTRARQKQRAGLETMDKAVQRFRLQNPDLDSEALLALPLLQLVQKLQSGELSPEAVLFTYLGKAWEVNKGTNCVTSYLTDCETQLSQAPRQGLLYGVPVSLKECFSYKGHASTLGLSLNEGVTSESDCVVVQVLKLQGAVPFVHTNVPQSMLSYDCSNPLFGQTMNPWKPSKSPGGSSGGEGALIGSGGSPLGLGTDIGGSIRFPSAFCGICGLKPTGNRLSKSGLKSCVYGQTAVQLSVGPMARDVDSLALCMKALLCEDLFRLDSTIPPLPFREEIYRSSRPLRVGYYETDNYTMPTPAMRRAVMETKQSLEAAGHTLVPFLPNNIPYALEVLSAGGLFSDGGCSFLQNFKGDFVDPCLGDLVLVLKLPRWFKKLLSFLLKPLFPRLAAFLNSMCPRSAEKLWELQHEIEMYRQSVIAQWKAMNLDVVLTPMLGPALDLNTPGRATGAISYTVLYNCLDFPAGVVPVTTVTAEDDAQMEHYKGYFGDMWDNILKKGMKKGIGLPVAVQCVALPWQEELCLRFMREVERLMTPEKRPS
Outline: as §1

[4] = biological target: MAGL (Mus musculus (Mouse), UniProt O35678); experiment: as above; details: mouse proteome, read-out: MAGL % inh. 1 μM (mouse)
MAGL (Mus musculus (Mouse), UniProt O35678), sequence (O35678 whole entry): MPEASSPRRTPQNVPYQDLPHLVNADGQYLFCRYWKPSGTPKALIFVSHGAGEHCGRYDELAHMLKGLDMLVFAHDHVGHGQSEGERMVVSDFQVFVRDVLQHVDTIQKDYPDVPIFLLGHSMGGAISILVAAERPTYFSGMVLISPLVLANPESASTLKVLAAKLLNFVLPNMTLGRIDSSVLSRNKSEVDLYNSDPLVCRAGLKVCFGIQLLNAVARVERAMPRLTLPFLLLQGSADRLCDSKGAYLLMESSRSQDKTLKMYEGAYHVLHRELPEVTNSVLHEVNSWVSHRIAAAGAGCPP
Outline: as §1

FAAH (Homo sapiens (Human), UniProt O00519), sequence (O00519 whole entry): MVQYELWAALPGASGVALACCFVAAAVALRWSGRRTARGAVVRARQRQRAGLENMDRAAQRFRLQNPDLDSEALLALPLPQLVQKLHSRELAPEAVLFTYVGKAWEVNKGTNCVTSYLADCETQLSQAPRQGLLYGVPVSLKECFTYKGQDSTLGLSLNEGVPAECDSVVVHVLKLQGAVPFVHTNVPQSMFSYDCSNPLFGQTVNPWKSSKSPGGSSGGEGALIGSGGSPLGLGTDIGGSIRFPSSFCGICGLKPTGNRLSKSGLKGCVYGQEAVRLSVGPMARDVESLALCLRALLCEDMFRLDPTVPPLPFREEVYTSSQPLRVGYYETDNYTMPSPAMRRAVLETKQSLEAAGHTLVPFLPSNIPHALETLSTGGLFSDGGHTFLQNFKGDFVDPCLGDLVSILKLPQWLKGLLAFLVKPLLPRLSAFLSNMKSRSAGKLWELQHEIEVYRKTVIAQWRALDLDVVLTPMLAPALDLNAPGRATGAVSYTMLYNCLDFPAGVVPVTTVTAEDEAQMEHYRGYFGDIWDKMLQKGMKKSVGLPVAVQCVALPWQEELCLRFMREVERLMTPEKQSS

| SMILES | inhibition at 1 µM [1] [%] | inhibition at 1 µM [2] [%] | inhibition at 1 µM [3] [%] | inhibition at 1 µM [4] [%] | IC50 [1] [µM] | IC50 [2] [µM] |
| --- | --- | --- | --- | --- | --- | --- |
| CS(=O)(=O)Nc1ccn(C(=O)N2CCN(Cc3ccc(Cl)c(N4CC[C@@H](F)C4)c3)CC2)n1 [Example 122, (R)-N-(1-(4-(4-Chloro-3-(3-fluoropyrrolidin-1-yl)benzyl)piperazine-1-carbonyl)-1H-pyrazol-3-yl)methanesulfonamide] | 0 to 25 | > 75 | 0 to 25 | > 75 |  |  |
| CC(=O)Nc1ccn(C(=O)N2CCN(Cc3ccc(C(N)=O)c(C(F)(F)F)c3)CC2)n1 [Example 123, 4-((4-(3-Acetamido-1H-pyrazole-1-carbonyl)piperazin-1-yl)methyl)-2-(trifluoromethyl)benzamide] | 0 to 25 | > 75 | 0 to 25 | > 75 |  |  |
| CC(=O)Nc1ccn(C(=O)N2CC3CN(Cc4ccc(C(N)=O)c(C(F)(F)F)c4)CC3C2)n1 (centres unmarked) [Example 124, 4-((5-(3-Acetamido-1H-pyrazole-1-carbonyl)hexahydropyrrolo[3,4-c]pyrrol-2(1H)-yl)methyl)-2-(trifluoromethyl)benzamide] | 0 to 25 | > 75 | 0 to 25 | > 75 |  |  |
| CC(=O)Nc1ccn(C(=O)N2CCC3(CC2)CN(Cc2ccc(C(N)=O)c(C(F)(F)F)c2)C3)n1 [Example 126, 4-((7-(3-Acetamido-1H-pyrazole-1-carbonyl)-2,7-diazaspiro[3.5]nonan-2-yl)methyl)-2-(trifluoromethyl)benzamide] | 0 to 25 | > 75 | 0 to 25 | > 75 |  |  |
| CC(=O)Nc1ccn(C(=O)N2CCN(Cc3cccc(C(F)(F)F)c3)CC2)n1 [Example 127, N-(1-(4-(3-(Trifluoromethyl)benzyl)piperazine-1-carbonyl)-1H-pyrazol-3-yl)acetamide] | 0 to 25 | > 75 | 0 to 25 | > 75 |  |  |
| CC(=O)Nc1ccn(C(=O)N2CCN(Cc3cccc(OC(F)(F)F)c3)CC2)n1 [Example 128, N-(1-(4-(3-(Trifluoromethoxy)benzyl)piperazine-1-carbonyl)-1H-pyrazol-3-yl)acetamide] | 0 to 25 | > 75 | 0 to 25 | > 75 |  |  |
| CC(=O)Nc1ccn(C(=O)N2CCN(Cc3cccc(C(F)(F)F)c3C)CC2)n1 [Example 129, N-(1-(4-(2-Methyl-3-(trifluoromethyl)benzyl)piperazine-1-carbonyl)-1H-pyrazol-3-yl)acetamide] | 0 to 25 | > 75 | 0 to 25 | > 75 |  |  |
| CC(=O)Nc1ccn(C(=O)N2CCC(C)(N(C)Cc3ccc(C(N)=O)c(C(F)(F)F)c3)CC2)n1 [Example 130, 4-(((1-(3-Acetamido-1H-pyrazole-1-carbonyl)-4-methylpiperidin-4-yl)(methyl)amino)methyl)-2-(trifluoromethyl)benzamide] | 0 to 25 | > 75 | 0 to 25 | > 75 |  |  |
| CS(=O)(=O)Nc1ccn(C(=O)N2CC3CN(Cc4ccc(Cl)c(N5CC6COCC6C5)c4)CC3C2)n1 (centres unmarked) [Example 140, N-(1-(5-(4-chloro-3-(Tetrahydro-1H-furo[3,4-c]pyrrol-5(3H)-yl)benzyl)octahydropyrrolo[3,4-c]pyrrole-2-carbonyl)-1H-pyrazol-3-yl)methanesulfonamide] | 0 to 25 | 25 to 50 | 0 to 25 | 0 to 25 |  |  |
| C[C@@H]1CN(Cc2ccc(Cl)c(N3CCC(F)CC3)c2)CCN1C(=O)n1ccc(NS(C)(=O)=O)n1 [Example 142, (R)-N-(1-(4-(4-Chloro-3-(4-fluoropiperidin-1-yl)benzyl)-2-methylpiperazine-1-carbonyl)-1H-pyrazol-3-yl)methanesulfonamide] | 0 to 25 | > 75 | 0 to 25 | > 75 |  |  |
| CC(=O)Nc1ccn(C(=O)N2CCN(Cc3cc(Cl)cc(Cl)c3)CC2)n1 [Example 144, N-(1-(4-(3,5-Dichlorobenzyl)piperazine-1-carbonyl)-1H-pyrazol-3-yl)acetamide] | 0 to 25 | > 75 | 0 to 25 | > 75 |  |  |
| CC(=O)Nc1ccn(C(=O)N2CC3CN(Cc4cc(F)cc(Cl)c4)CC3C2)n1 (centres unmarked) [Example 145, N-(1-(5-(3-Chloro-5-fluorobenzyl)octahydropyrrolo[3,4-c]pyrrole-2-carbonyl)-1H-pyrazol-3-yl)acetamide] | > 75 | > 75 | > 75 | > 75 | 0.1 to 1 | < 0.1 |
| CC(=O)Nc1ccn(C(=O)N2CC3CN(Cc4cc(Cl)cc(C(F)(F)F)c4)CC3C2)n1 (centres unmarked) [Example 146, N-(1-(5-(3-Chloro-5-(trifluoromethyl)benzyl)octahydropyrrolo[3,4-c]pyrrole-2-carbonyl)-1H-pyrazol-3-yl)acetamide] | > 75 | > 75 | > 75 | > 75 | 1 to 10 | < 0.1 |
| CS(=O)(=O)Nc1ccn(C(=O)N2CCN(Cc3ccc(Cl)c(N4CCC(F)(F)CC4)c3)CC2)n1 [Example 147, N-(1-(4-(4-Chloro-3-(4,4-difluoropiperidin-1-yl)benzyl)piperazine-1-carbonyl)-1H-pyrazol-3-yl)methanesulfonamide] | 0 to 25 | > 75 | 0 to 25 | > 75 |  |  |
| CS(=O)(=O)Nc1ccn(C(=O)N2CCN(Cc3cccc(Oc4ccc(Cl)cc4)c3)CC2)n1 [Example 149, N-(1-(4-(3-(4-Chlorophenoxy)benzyl)piperazine-1-carbonyl)-1H-pyrazol-3-yl)methanesulfonamide] | > 75 | > 75 | > 75 | > 75 | 0.1 to 1 | < 0.1 |
| C[C@H]1CCCN1c1cc(CN2CCN(C(=O)n3ccc(NS(C)(=O)=O)n3)CC2)ccc1C(F)(F)F [Example 151, (S)-N-(1-(4-(3-(2-Methylpyrrolidin-1-yl)-4-(trifluoromethyl)benzyl)piperazine-1-carbonyl)-1H-pyrazol-3-yl)methanesulfonamide] | 0 to 25 | > 75 | 0 to 25 | > 75 |  |  |
| CCN1CC2CN(c3cc(CN4CCN(C(=O)n5ccc(NS(C)(=O)=O)n5)CC4)ccc3Cl)CC2C1 (centres unmarked) [Example 153, N-(1-(4-(4-Chloro-3-(5-ethylhexahydropyrrolo[3,4-c]pyrrol-2(1H)-yl)benzyl)piperazine-1-carbonyl)-1H-pyrazol-3-yl)methanesulfonamide] | 0 to 25 | > 75 | 0 to 25 | 50 to 75 |  |  |
| CC(=O)Nc1ccn(C(=O)N2CCC3(CCCN3C(=O)c3cc4ccc(C(F)(F)F)cc4s3)CC2)n1 [Example 155, N-(1-(1-(6-(Trifluoromethyl)benzo[b]thiophene-2-carbonyl)-1,8-diazaspiro[4.5]decane-8-carbonyl)-1H-pyrazol-3-yl)acetamide] | 0 to 25 | > 75 | > 75 | > 75 |  |  |
| CS(=O)(=O)Nc1ccn(C(=O)N2CCC3(CCN(Cc4ccc(N5CC6COCC6C5)c(Cl)c4)C3)CC2)n1 (centres unmarked) [Example 160, N-(1-(2-(3-Chloro-4-(tetrahydro-1H-furo[3,4-c]pyrrol-5(3H)-yl)benzyl)-2,8-diazaspiro[4.5]decane-8-carbonyl)-1H-pyrazol-3-yl)methanesulfonamide] | 25 to 50 | 50 to 75 | 0 to 25 | 0 to 25 |  |  |
| CS(=O)(=O)Nc1ccn(C(=O)N2CCC3(CCN(Cc4ccccc4Cl)C3)CC2)n1 [Example 162, N-(1-(2-(2-Chlorobenzyl)-2,8-diazaspiro[4.5]decane-8-carbonyl)-1H-pyrazol-3-yl)methanesulfonamide] | 0 to 25 | > 75 | 0 to 25 | 0 to 25 |  |  |
| CS(=O)(=O)Nc1ccn(C(=O)N2CCC3(CCN(Cc4cccc(Cl)c4)C3)CC2)n1 [Example 163, N-(1-(2-(3-Chlorobenzyl)-2,8-diazaspiro[4.5]decane-8-carbonyl)-1H-pyrazol-3-yl)methanesulfonamide] | 0 to 25 | > 75 | 0 to 25 | 0 to 25 |  |  |
| CS(=O)(=O)Nc1ccn(C(=O)N2CCC3(CCN(Cc4ccc(Cl)cc4)C3)CC2)n1 [Example 164, N-(1-(2-(4-Chlorobenzyl)-2,8-diazaspiro[4.5]decane-8-carbonyl)-1H-pyrazol-3-yl)methanesulfonamide] | 0 to 25 | > 75 | 0 to 25 | 0 to 25 |  |  |
| CC(=O)Nc1ccn(C(=O)N2CC3CN(Cc4cc(N5CCOCC5)cc(C(F)(F)F)c4)CC3C2)n1 (centres unmarked) [Example 166, N-(1-(5-(3-Morpholino-5-(trifluoromethyl)benzyl)octahydropyrrolo[3,4-c]pyrrole-2-carbonyl)-1H-pyrazol-3-yl)acetamide] | 0 to 25 | > 75 | > 75 | > 75 |  |  |
